Measured values as given in patent US11603373B2, “TDO2 and IDO1 inhibitors” (Genentech, Inc., priority 2017, dated 2023).
pEC50: −log10 of the molar value.

Legend:
[1] = target: T1, TDO2 (SW48 cells, high TDO expressing cells) (Homo sapiens, UniProt P48775); experiment: NFK GreenScreen cell assay, inhibition of TDO in SW48 cells; format: cell-based; settings: read-out: TDO2 Cell Fluor EC50
T1 construct: SW48 cells (high TDO expressing cells); endogenous in cells; host or cells: SW48 cells
Text: (§1) Cells are counted on a Vi-Cell (Beckman Coulter). […] The final DMSO concentration is 0.5%.

[2] = target: T2, IDO1 (A172+IFNg cells, high IDO expressing cells) (Homo sapiens, UniProt P14902); experiment: NFK GreenScreen cell assay, inhibition of IDO in A172+IFNg cells; format: cell-based; settings: read-out: IDO cell Fluor EC50
T2 construct: A172+IFNg cells (high IDO expressing cells); endogenous in cells; host or cells: A172 cells induced with 100 ng/ml IFNγ
T2 sequence (P14902 whole entry): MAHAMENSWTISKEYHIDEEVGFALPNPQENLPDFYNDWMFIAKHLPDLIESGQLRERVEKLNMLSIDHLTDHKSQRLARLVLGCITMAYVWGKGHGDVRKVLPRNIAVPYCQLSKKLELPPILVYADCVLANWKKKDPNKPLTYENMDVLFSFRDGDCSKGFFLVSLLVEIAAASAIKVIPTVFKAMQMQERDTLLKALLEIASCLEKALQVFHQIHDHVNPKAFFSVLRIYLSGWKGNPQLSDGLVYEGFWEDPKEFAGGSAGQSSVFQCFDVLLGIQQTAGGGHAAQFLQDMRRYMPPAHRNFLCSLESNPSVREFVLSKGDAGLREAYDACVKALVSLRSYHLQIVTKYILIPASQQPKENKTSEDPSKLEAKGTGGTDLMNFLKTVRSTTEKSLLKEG
Text: as §1

T1 sequence (P48775 whole entry): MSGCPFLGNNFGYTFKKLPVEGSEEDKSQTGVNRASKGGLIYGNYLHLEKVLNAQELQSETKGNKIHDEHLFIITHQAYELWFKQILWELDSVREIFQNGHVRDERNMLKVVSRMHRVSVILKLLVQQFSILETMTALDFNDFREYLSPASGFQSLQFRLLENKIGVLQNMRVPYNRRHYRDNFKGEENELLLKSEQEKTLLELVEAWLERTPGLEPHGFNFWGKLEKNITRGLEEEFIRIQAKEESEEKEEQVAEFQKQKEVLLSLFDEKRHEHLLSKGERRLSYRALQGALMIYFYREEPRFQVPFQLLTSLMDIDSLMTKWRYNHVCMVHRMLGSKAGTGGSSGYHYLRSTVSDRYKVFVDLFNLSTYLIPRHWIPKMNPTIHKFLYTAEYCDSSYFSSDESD

Structure (SMILES)	pEC50 [1]	pEC50 [2]
CN(C)C(=O)CCC(=O)N1CCC2(CC1)CC(C1c3ccccc3-c3cncn31)C2O (stereo not shown) [compound 50, 4-[3-hydroxy-2-(5H-imidazo[1,5-b]isoindol-5-yl)-7-azaspiro[3.5]nonan-7-yl]-N,N-dimethyl-4-oxo-butanamide]	5.89	5.82
O=C(CN1CCCC1=O)N1CCC2(CC1)C[C@@H]([C@H]1c3ccccc3-c3cncn31)[C@H]2O [compound 52, 1-[2-[3-hydroxy-2-(5H-imidazo[1,5-b]isoindol-5-yl)-7-azaspiro[3.5]nonan-7-yl]-2-oxo-ethyl]pyrrolidin-2-one]	5.43	5.41
CN1CC(C(=O)N2CCC3(CC2)CC(C2c4ccccc4-c4cncn42)C3O)CC1=O (stereo not shown) [compound 53, 4-[3-hydroxy-2-(5H-imidazo[1,5-b]isoindol-5-yl)-7-azaspiro[3.5]nonane-7-carbonyl]-1-methyl-pyrrolidin-2-one]	5.00	5.17
Cn1cc(CCC(=O)N2CCC3(CC2)C[C@@H]([C@H]2c4ccccc4-c4cncn42)[C@H]3O)cn1 [compound 55, 1-[3-hydroxy-2-(5H-imidazo[1,5-b]isoindol-5-yl)-7-azaspiro[3.5]nonan-7-yl]-3-(1-methylpyrazol-4-yl)propan-1-one]	6.09	6.29
CC(=O)N1CCC2(CC1)C[C@@H]([C@H]1c3ccccc3-c3cncn31)[C@H]2O [compound 56, 1-[3-hydroxy-2-(5H-imidazo[1,5-b]isoindol-5-yl)-7-azaspiro[3.5]nonan-7-yl]ethanone]	6.10	6.18
NC(=O)N1CCCC(C(=O)N2CCC3(CC2)CC(C2c4ccccc4-c4cncn42)C3O)C1 (stereo not shown) [compound 64, 3-[3-hydroxy-2-(5H-imidazo[1,5-b]isoindol-5-yl)-7-azaspiro[3.5]nonane-7-carbonyl]piperidine-1-carboxamide]	4.89	4.77
O=C(C1CCS(=O)(=O)C1)N1CCC2(CC1)C[C@@H]([C@H]1c3ccccc3-c3cncn31)[C@H]2O (stereo partly shown) [compound 65, (1,1-dioxothiolan-3-yl)-[3-hydroxy-2-(5H-imidazo[1,5-b]isoindol-5-yl)-7-azaspiro[3.5]nonan-7-yl]methanone]	5.05	5.20
NC(=O)N1CCC(C(=O)N2CCC3(CC2)CC(C2c4ccccc4-c4cncn42)C3O)CC1 (stereo not shown) [compound 66, 4-[3-hydroxy-2-(5H-imidazo[1,5-b]isoindol-5-yl)-7-azaspiro[3.5]nonane-7-carbonyl]piperidine-1-carboxamide]	4.85	4.89
CC(=O)N1CCC(C(=O)N2CCC3(CC2)C[C@@H]([C@H]2c4ccccc4-c4cncn42)[C@H]3O)CC1 [compound 68, 1-[4-[3-hydroxy-2-(5H-imidazo[1,5-b]isoindol-5-yl)-7-azaspiro[3.5]nonane-7-carbonyl]-1-piperidyl]ethanone]	5.24	5.47

Stronger by pEC50 [1], values ahead:

pEC50 [1]	pEC50 [2]	Structure (SMILES)
6.28	6.25	CCC(=O)N1CCC2(CC1)CC(C1c3ccccc3-c3cncn31)C2O (stereo not shown) [compound 49, 1-[3-hydroxy-2-(5H-imidazo[1,5-b]isoindol-5-yl)-7-azaspiro[3.5]nonan-7-yl]propan-1-one]
6.33	6.92	N#CC1(C(=O)N2CCC3(CC2)C[C@@H]([C@H]2c4ccccc4-c4cncn42)[C@H]3O)CC1 [compound 61, 1-[3-hydroxy-2-(5H-imidazo[1,5-b]isoindol-5-yl)-7-azaspiro[3.5]nonan-7-carbonyl]cyclopropanecarbonitrile]
6.43	6.62	Cc1cc(CC(=O)N2CCC3(CC2)C[C@@H]([C@H]2c4ccccc4-c4cncn42)[C@H]3O)no1 [compound 54, 1-[3-hydroxy-2-(5H-imidazo[1,5-b]isoindol-5-yl)-7-azaspiro[3.5]nonan-7-yl]-2-(5-methylisoxazol-3-yl)ethanone]
6.43	6.46	O=C(C(F)F)N1CCC2(CC1)CC(C1c3ccccc3-c3cncn31)C2O (stereo not shown) [compound 69, 2,2-difluoro-1-[3-hydroxy-2-(5H-imidazo[1,5-b]isoindol-5-yl)-7-azaspiro[3.5]nonan-7-yl]ethanone]
6.47	6.46	O=C(NCC(F)F)N1CCC2(CC1)C[C@@H]([C@H]1c3ccccc3-c3cncn31)[C@H]2O [compound 58, N-(2,2-difluoroethyl)-3-hydroxy-2-(5H-imidazo[1,5-b]isoindol-5-yl)-7-azaspiro[3.5]nonane-7-carboxamide]
6.51	6.80	Cc1cc(CC(=O)N2CCC3(CC2)CC(C2c4ccccc4-c4cncn42)C3O)on1 (stereo not shown) [compound 63, 1-[3-hydroxy-2-(5H-imidazo[1,5-b]isoindol-5-yl)-7-azaspiro[3.5]nonan-7-yl]-2-(3-methylisoxazol-5-yl)ethanone]
6.59	7.06	O=C(OCC(F)F)N1CCC2(CC1)C[C@@H]([C@H]1c3ccccc3-c3cncn31)[C@H]2O [compound 57, 2,2-difluoroethyl (2S,3R)-3-hydroxy-2-[(5S)-5H-imidazo[1,5-b]isoindol-5-yl]-7-azaspiro[3.5]nonane-7-carboxylate]
6.66	6.41	O=C(CC1CCOCC1)N1CCC2(CC1)CC(C1c3ccccc3-c3cncn31)C2O (stereo not shown) [compound 51, 1-[3-hydroxy-2-(5H-imidazo[1,5-b]isoindol-5-yl)-7-azaspiro[3.5]nonan-7-yl]-2-tetrahydropyran-4-yl-ethanone]
